Data: patent US9302991B2, “Arylamide derivatives as TTX-S blockers” (RaQualia Pharma Inc., priority 2010, dated 2016)

Target: T1, human Nav1.3 channels (Homo sapiens, UniProt Q9NY46)
T1 construct: expressed in transfected cells; host or cells: HEK293
Experiment: FRET assay, human Nav1.3 (EFS on FDSS)
Assay type: cell-based
Details: HEK293 cells expressing human Nav1.3, read-out: IC50 against Nav1.3
Description: The inhibitory activities of compounds against voltage gated sodium channels are determined by methodology well known in the art.
The ability of the aryl substituted carboxamide derivatives of the formula (I) to inhibit the NaV1.3, Nav1.7 and Nav1.5 channels is measured by Fluorescence Resonance Energy Transfer (FRET) assay and electrophysiology assay described below.
This screen is used to determine the effects of compounds on human Nav1.3, human Nav1.7, and human Nav1.5 channels, utilising electrical field stimulation (EFS) system in 96-well plate format on FDSS (Hamamatsu Photonics) platform. The change of membrane potential is monitored with FRET dye pair, oxonol (DiSBAC2(3)) and coumarin (CC2-DMPE).
Each HEK293 cells expressing human Nav1.3 channels and HEK293 cells expressing human Nav1.5 channels are grown in T225 flasks, in a 5% CO2 humidified incubator to about 80% confluence. Media composition consists of Dulbecco's Modified Eagle Medium (high glucose), 10% FCS, 100 units/mL Penicillin, 100 microgram/mL Streptomycin and 500 microgram/mL Geneticine.
Protocol: • Seed each cell lines (1×10^5 cells/well) into poly-D-lysine coated 96-well plates prior to experimentation. • Incubate at 37° C. in 5% CO2 for 24 hours. • Wash each well with assay buffer (140 mM NaCl, 4.5 mM KCl, 10 mM D-Glucose, 2 mM CaCl2, 1 mM MgCl2, 10 mM HEPES, pH 7.4 adjusted with NaOH) twice. • Add 1st loading solution containing 10 microM CC2-DMPE and 0.06% Pluronic F-127 in assay buffer. • Incubate the plate at room temperature in dark for 1 hour. • Remove 1st loading solution and added 2nd loading solution containing 15 microM DiSBAC2(3), 0.555 mM VABSC-1 and 0.004% Pluronic F-127 in assay buffer. • Place the plate under the dark at room temperature for 25 minutes. • Add compound solutions into the assay plate. • Set the assay plate in FDSS and placed an EFS device on the plate. • Measure EFS-induced fluorescent response by FDSS.
The data are analyzed and reported as normalized ratios of intensities measured at […]. The process of calculating these ratios is performed as follows:
This analysis is performed using a computerized specific program designed for FDSS generated data. Fluorescence ratio values are plotted using XLfit to determine an IC50 value for each compound.

T1 sequence (Q9NY46 whole entry): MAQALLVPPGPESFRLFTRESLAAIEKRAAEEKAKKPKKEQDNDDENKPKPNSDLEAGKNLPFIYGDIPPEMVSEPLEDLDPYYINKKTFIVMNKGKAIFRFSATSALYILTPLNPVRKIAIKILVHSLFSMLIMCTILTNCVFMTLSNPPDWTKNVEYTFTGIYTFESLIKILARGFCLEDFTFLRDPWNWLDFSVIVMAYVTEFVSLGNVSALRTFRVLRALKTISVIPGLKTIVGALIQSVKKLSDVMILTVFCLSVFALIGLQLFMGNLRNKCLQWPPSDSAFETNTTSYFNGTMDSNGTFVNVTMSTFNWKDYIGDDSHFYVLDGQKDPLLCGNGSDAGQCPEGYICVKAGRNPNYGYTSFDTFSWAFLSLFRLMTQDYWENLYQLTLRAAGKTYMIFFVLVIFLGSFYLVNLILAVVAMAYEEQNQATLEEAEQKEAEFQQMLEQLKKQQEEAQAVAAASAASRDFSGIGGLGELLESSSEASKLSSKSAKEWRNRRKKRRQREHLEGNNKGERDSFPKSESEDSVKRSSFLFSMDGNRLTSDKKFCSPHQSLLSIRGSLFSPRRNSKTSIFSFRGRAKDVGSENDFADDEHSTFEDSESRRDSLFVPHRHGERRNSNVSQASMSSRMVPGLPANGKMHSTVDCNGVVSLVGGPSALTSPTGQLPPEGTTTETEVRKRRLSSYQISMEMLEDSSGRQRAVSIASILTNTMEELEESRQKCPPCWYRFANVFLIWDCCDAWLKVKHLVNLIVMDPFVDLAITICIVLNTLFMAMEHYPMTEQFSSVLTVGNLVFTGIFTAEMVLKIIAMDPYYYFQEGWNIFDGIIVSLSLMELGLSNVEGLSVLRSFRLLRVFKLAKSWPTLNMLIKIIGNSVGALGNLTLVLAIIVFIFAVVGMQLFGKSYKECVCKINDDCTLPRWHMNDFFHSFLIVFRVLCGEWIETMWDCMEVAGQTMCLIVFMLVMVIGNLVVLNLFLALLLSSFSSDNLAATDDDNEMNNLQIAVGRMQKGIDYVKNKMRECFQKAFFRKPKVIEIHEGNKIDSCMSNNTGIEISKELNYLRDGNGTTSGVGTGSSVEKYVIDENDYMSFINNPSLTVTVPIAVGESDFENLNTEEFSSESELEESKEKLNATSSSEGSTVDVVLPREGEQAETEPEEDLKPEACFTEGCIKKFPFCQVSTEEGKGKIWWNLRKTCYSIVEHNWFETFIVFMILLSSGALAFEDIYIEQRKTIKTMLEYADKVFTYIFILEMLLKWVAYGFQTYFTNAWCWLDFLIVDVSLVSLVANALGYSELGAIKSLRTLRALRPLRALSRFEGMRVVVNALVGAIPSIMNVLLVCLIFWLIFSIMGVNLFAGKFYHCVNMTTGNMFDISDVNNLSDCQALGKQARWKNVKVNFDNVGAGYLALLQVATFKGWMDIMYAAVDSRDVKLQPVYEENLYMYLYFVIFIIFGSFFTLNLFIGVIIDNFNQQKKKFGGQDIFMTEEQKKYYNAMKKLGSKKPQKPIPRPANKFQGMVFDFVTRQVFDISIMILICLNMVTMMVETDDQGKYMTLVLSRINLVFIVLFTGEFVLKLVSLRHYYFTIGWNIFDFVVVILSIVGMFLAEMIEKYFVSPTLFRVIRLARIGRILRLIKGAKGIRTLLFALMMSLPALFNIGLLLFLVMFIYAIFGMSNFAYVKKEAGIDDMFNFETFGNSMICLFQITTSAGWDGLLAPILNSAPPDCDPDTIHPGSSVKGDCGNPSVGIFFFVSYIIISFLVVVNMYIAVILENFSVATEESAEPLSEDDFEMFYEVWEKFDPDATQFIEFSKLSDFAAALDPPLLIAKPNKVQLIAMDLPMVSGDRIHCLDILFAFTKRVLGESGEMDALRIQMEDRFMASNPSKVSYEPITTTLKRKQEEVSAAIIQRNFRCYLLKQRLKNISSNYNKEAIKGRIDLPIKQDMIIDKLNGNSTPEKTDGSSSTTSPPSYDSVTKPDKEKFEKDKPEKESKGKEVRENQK

Row | IC50 [µM] | SMILES
1 | < 1 | Cc1cc(CNC(=O)c2ccnc(NC(=O)C3CC3)c2)nc(OCC(F)(F)F)c1 [Example 578, 2-(cyclopropanecarboxamido)-N-((4-methyl-6-(2,2,2-trifluoroethoxy)pyridin-2-yl)methyl)isonicotinamide]
2 | < 1 | CCC(=O)Nc1cc(C(=O)NCc2ccc(F)c(OC(F)(F)F)c2)cc(C)n1 [Example 591, N-(4-fluoro-3-(trifluoromethoxy)benzyl)-2-methyl-6-propionamidoisonicotinamide]
3 | < 1 | CCC(=O)Nc1cc(C(=O)NCc2cc(C)cc(OC(F)(F)F)c2)ccn1 [Example 598, N-(3-methyl-5-(trifluoromethoxy)benzyl)-2-propionamidoisonicotinamide]
4 | < 1 | Cc1cc(CNC(=O)c2ccnc(NC(=O)C3CC3)c2)cc(OC(F)(F)F)c1 [Example 599, 2-(cyclopropanecarboxamido)-N-(3-methyl-5-(trifluoromethoxy)benzyl)isonicotinamide]
5 | < 1 | Cc1cc(CNC(=O)c2ccnc(NC(=O)C3CC3)n2)cc(OC(F)(F)F)c1 [Example 604, 2-(cyclopropanecarboxamido)-N-(3-methyl-5-(trifluoromethoxy)benzyl)pyrimidine-4-carboxamide]
6 | < 1 | CCC(=O)Nc1cc(C(=O)NCc2cc(OC(F)(F)F)ccc2F)ccn1 [Example 607, N-(2-fluoro-5-(trifluoromethoxy)benzyl)-2-propionamidoisonicotinamide]
7 | < 1 | O=C(NCc1cc(OC(F)(F)F)ccc1F)c1ccnc(NC(=O)C2CC2)c1 [Example 608]
8 | < 1 | CCC(=O)Nc1cc(C(=O)NCc2cc(OC(F)(F)F)ccc2F)cc(C)n1 [Example 609, N-(2-fluoro-5-(trifluoromethoxy)benzyl)-2-methyl-6-propionamidoisonicotinamide]
9 | < 1 | CCC(=O)Nc1cc(C(=O)NCc2ccc(OCC(F)(F)C(F)(F)F)nc2)ccn1 [Example 639, N-((6-(2,2,3,3,3-pentafluoropropoxy)pyridin-3-yl)methyl)-2-propionamidoisonicotinamide]
10 | < 1 | CC(C)C(=O)Nc1cc(C(=O)NCc2ccc(OCC(F)(F)C(F)(F)F)nc2)ccn1 [Example 641, 2-isobutyramido-N-((6-(2,2,3,3,3-pentafluoropropoxy)pyridin-3-yl)methyl)isonicotinamide]
11 | < 1 | O=C(NCc1ccc(COCC(F)(F)F)cc1)c1ccnc(NC(=O)C2CC2)c1 [Example 665, 2-(cyclopropanecarboxamido)-N-(4-((2,2,2-trifluoroethoxy)methyl)benzyl)isonicotinamide]
12 | < 1 | CC(=O)Nc1cc(C(=O)NCc2ccc(Cl)c(C(F)(F)F)c2)ccn1 [Example 682, 2-acetamido-N-(4-chloro-3-(trifluoromethyl)benzyl)isonicotinamide]
13 | < 1 | CCc1cc(CNC(=O)c2ccnc(NC(C)=O)c2)cnc1OCC(F)(F)F [Example 709, 2-acetamido-N-((5-ethyl-6-(2,2,2-trifluoroethoxy)pyridin-3-yl)methyl)isonicotinamide]
14 | < 1 | CCC(=O)Nc1cc(C(=O)NCc2cnc(OCC(F)(F)F)c(CC)c2)ccn1 [Example 710, N-((5-ethyl-6-(2,2,2-trifluoroethoxy)pyridin-3-yl)methyl)-2-propionamidoisonicotinamide]
15 | < 1 | CCc1cc(CNC(=O)c2ccnc(NC(=O)C3CC3)c2)cnc1OCC(F)(F)F [Example 711, 2-(cyclopropanecarboxamido)-N-((5-ethyl-6-(2,2,2-trifluoroethoxy)pyridin-3-yl)methyl)isonicotinamide]
16 | < 1 | CCc1cc(CNC(=O)c2ccnc(NC(=O)C(C)C)c2)cnc1OCC(F)(F)F [Example 712, N-((5-ethyl-6-(2,2,2-trifluoroethoxy)pyridin-3-yl)methyl)-2-isobutyramidoisonicotinamide]
17 | < 1 | CCc1cc(CNC(=O)c2cc(C)nc(NC(C)=O)c2)cnc1OCC(F)(F)F [Example 713, 2-acetamido-N-((5-ethyl-6-(2,2,2-trifluoroethoxy)pyridin-3-yl)methyl)-6-methylisonicotinamide]
18 | < 1 | CCC(=O)Nc1cc(C(=O)NCc2cnc(OCC(F)(F)F)c(CC)c2)cc(C)n1 [Example 714, N-((5-ethyl-6-(2,2,2-trifluoroethoxy)pyridin-3-yl)methyl)-2-methyl-6-propionamidoisonicotinamide]
19 | < 1 | CCc1cc(CNC(=O)c2cc(C)nc(NC(=O)C(C)C)c2)cnc1OCC(F)(F)F [Example 715, N-((5-ethyl-6-(2,2,2-trifluoroethoxy)pyridin-3-yl)methyl)-2-isobutyramido-6-methylisonicotinamide]
20 | < 1 | CCc1cc(CNC(=O)c2ccnc(NC(=O)C3CC3)n2)cnc1OCC(F)(F)F [Example 717, 2-(cyclopropanecarboxamido)-N-((5-ethyl-6-(2,2,2-trifluoroethoxy)pyridin-3-yl)methyl)pyrimidine-4-carboxamide]

More lines, now with the values behind:

Row | SMILES | IC50 [µM]
21 | CC(=O)Nc1cc(C(=O)NCc2cccc(OCC(F)(F)F)n2)cc(C)n1 [Example 466, 2-acetamido-6-methyl-N-((6-(2,2,2-trifluoroethoxy)pyridin-2-yl)methyl)isonicotinamide] | < 1
22 | CC(C)C(=O)Nc1cc(C(=O)NCc2cccc(OCC(F)(F)F)n2)ccn1 [Example 468, 2-isobutyramido-N-((6-(2,2,2-trifluoroethoxy)pyridin-2-yl)methyl)isonicotinamide] | < 1
23 | CCCC(=O)Nc1cc(C(=O)NCc2cccc(OCC(F)(F)F)n2)ccn1 [Example 469, 2-butyramido-N-((6-(2,2,2-trifluoroethoxy)pyridin-2-yl)methyl)isonicotinamide] | < 1
24 | Cc1cc(C(=O)NCc2cccc(OCC(F)(F)F)n2)cc(NC(=O)C(C)C)n1 [Example 496, 2-isobutyramido-6-methyl-N-((6-(2,2,2-trifluoroethoxy)pyridin-2-yl)methyl)isonicotinamide] | < 1
25 | CCNC(=O)c1cc(C(=O)NCc2ccc(OCC(F)(F)F)nc2OC)cc(C)n1 [Example 508, N2-ethyl-N4-((2-methoxy-6-(2,2,2-trifluoroethoxy)pyridin-3-yl)methyl)-6-methylpyridine-2,4-dicarboxamide] | < 1
26 | Cc1cc(C(=O)NCc2cnc(OCC(F)(F)F)cc2C)cc(NC(=O)C(C)C)n1 [Example 516, 2-isobutyramido-6-methyl-N-((4-methyl-6-(2,2,2-trifluoroethoxy)pyridin-3-yl)methyl)isonicotinamide] | < 1
27 | Cc1ccc(OCC(F)(F)F)nc1CNC(=O)c1ccnc(NC(=O)C(C)C)c1 [Example 566, 2-isobutyramido-N-((3-methyl-6-(2,2,2-trifluoroethoxy)pyridin-2-yl)methyl)isonicotinamide] | < 1
28 | Cc1ccc(OCC(F)(F)F)nc1CNC(=O)c1ccnc(NC(=O)C2CC2)c1 [Example 568, 2-(cyclopropanecarboxamido)-N-((3-methyl-6-(2,2,2-trifluoroethoxy)pyridin-2-yl)methyl)isonicotinamide] | < 1
29 | CCC(=O)Nc1cc(C(=O)NCc2cc(C(F)(F)F)ccc2F)ccn1 [Example 572, N-(2-fluoro-5-(trifluoromethyl)benzyl)-2-propionamidoisonicotinamide] | < 1
30 | O=C(NCc1cc(C(F)(F)F)ccc1F)c1ccnc(NC(=O)C2CC2)c1 [Example 573, 2-(cyclopropanecarboxamido)-N-(2-fluoro-5-(trifluoromethyl)benzyl)isonicotinamide] | < 1
31 | CC(=O)Nc1cc(C(=O)NCc2cc(C(F)(F)F)ccc2F)cc(C)n1 [Example 574, 2-acetamido-N-(2-fluoro-5-(trifluoromethyl)benzyl)-6-methylisonicotinamide] | < 1
32 | Cc1cc(C(=O)NCc2cc(C(F)(F)F)ccc2F)cc(NC(=O)C(C)C)n1 [Example 575, N-(2-fluoro-5-(trifluoromethyl)benzyl)-2-isobutyramido-6-methylisonicotinamide] | < 1
33 | Cc1cc(CNC(=O)c2ccnc(NC(=O)C(C)C)c2)nc(OCC(F)(F)F)c1 [Example 576, 2-isobutyramido-N-((4-methyl-6-(2,2,2-trifluoroethoxy)pyridin-2-yl)methyl)isonicotinamide] | < 1
34 | Cc1cc(CNC(=O)c2cc(C)nc(NC(=O)C(C)C)c2)nc(OCC(F)(F)F)c1 [Example 577, 2-isobutyramido-6-methyl-N-((4-methyl-6-(2,2,2-trifluoroethoxy)pyridin-2-yl)methyl)isonicotinamide] | < 1
